The source of these data is patent US7026344B2, “Treating sickle cell disease” (priority 2000, dated 2006).

For test [1], the system named is activated-PMN mediated SRBC retention/adherence in the isolated-perfused rat lung. In words: SRBC retention/adherence in isolated-perfused lung with PMA-activated PMNs. Particulars: for SRBC retention/adherence: mean±SE. The procedure:
Isolated perfused lung. Male Sprague-Dawley rats (275–350 g) were anesthetized with Nembutal sodium (25 mg ip), and lungs were removed for extracorporeal perfusion. A tracheostomy was performed that permitted ventilation with a Harvard rodent ventilator (model 683) at 55 breaths/min with a tidal volume of 2.5 ml and 2.0 cmH2O positive end-expiratory pressure. The inspired gas mixture as 95% air-5% CO2 (room air gas). A median stemotomy was performed, heparin sodium (100 IU) was injected in the right ventricle, and caminulas were placed in the pulmonary artery and left ventricle. Heart, lungs, and mediastinal structures were removed en bloc and placed into a humidified chamber. Lungs were perfused by a Gilson Minipuls 2 peristaltic pump at a constant flow of 0.03 ml·g body wt^−1·min^−1. Lungs were perfused with a physiological salt solution (PSS) containing bovine serum albumin (BSA, 66,000 mol.wt). The PSS-BSA perfusate contained (in mM) 119 NaCl, 4.7 KCI, 1.17 MgSO4, 22.5 NaHCO3, 1.18 KH2PO4, 3.2 CaCl2, 5.5 glucose, and 4 g/100 ml BSA. PSS-BSA (100 ml) was perfused through the lungs in a nonrecirculating fashion to remove residual blood cells and plasma. The perfusate was then changed to a PSS-BSA perfusate that contained RBCs from individuals homozygous for sickle cell anemia (Hb SS). The perfusate hematocrit was ˜10%. Pulmonary arterial pressure (Ppa) and pulmonary venous (Ppv) were continuously monitored with Cope pressure transducers (model 041-500-503) and recorded on a Grass polygraph recorder (model 7E). Zone 3 flow conditions (arterial>venous>alveolar pressures) were maintained throughout all experiments.
Blood collection. During steady-state, blood samples (˜40 ml) were obtained from normal (Hemoglobin A) human volunteers and from individuals with homozygous sickle cell anemia in the sickle cell clinics at the University of South Alabama. Samples were collected in syringes containing heparin and utilized within 48 hours of collection. Individuals having received blood transfusions within 6 wks were excluded from this study. Sickle cell anemia was documented by hemoglobin electrophoresis in each subject.
RBC isolation and Cr^51 labeling. Each whole blood sample was centrifuged at 4100 rpm for 10 min followed by the removal of the plasma and buffy coat. Packed RBCs were then mixed at a 1:3 dilution with normal saline and washed ×3. With each wash, the RBC suspension was centrifuged for 10 min at 3000 rpm followed by removal of the supernatant. Following the third wash, packed RBCs were resuspended in PBS (1 ml PBS/1 ml packed RBCs) and incubated with 100 μCi Cr^51 for 60 min in a shaker water bath at 37° C. Following incubation, the Cr^51 labeled RBCs were washed ×1 with normal saline and resuspended in PSS-BSA to obtain a hematocrit of ˜10%.
Neutrophil (PMN) isolations. Heparinized whole blood (20 ml) from individuals with homozygous sickle cell anemia was diluted 1:1 with normal saline. Dextran 500 was added to the 1:1 mix at ¼ the volume of the 1:1 mix. This was allowed to incubate for 45 min at 37° C. The supernatant (contains PMNs) was aspirated into a 50 ml centrifuge tube and underlayered with 10 ml histopague 1077. This was centrifuged at 1250 rpm for 30 min. The supernatant is aspirated and discarded leaving the PMN pellet. Sterile H2O, 3 ml, is added to the PMN pellet and agitated for 3 sec to lyse any residual RBCs. Phosphate buffered saline, 45 ml, is added immediately thereafter to stop the reaction. This is centrifuged at 1250 rpm for 10 min. The supernatant is aspirated and discarded. This process of RBC lysis followed by PBS is repeated until the PMN pellet is without visual evidence of RBC contamination. The PMN pellet is suspended in 1 ml of sterile Hank's balanced salt solution. A total PMN count is obtained using the Cell-DYN 900 Coulter Counter. PMN viability is 95–99% as assessed using trypan blue.
RBC Retention. […]

Test [2] has as its system erythroid progenitors (BFU-E colonies) from normal donors. The test is described as follows: BFU-E colony growth in methylcellulose culture, normal donors. The class given is cell-based, human. As to the method: (§1) BFU-E Colony Growth. Mononuclear cells were isolated from the peripheral blood of each patient studied by density gradient centrifugation using Histapaque-1077 (Sigma). Erythroid progenitors were obtained in methylcellulose culture. ZL was added on day 0 at 25, 50, 75, or 100 μM concentrations for 13–14 days at which time the number of BFU-E colonies were counted on an inverted microscope and harvested for hemoglobin determinations.
The cytotoxic effect of HU as been proposed as a basic mechanism involved in hemoglobin F induction. In the absence of this characteristic for ZL, whether γ gene expression would be, induced in erythroid progenitors obtained from normal donors was tested. Utilizing the same protocol, BFU-E colonies from normal donors wee analyzed in the presence of ZL at 0 to 100 μM concentrations. In normal erythroid progenitors, a decrease in BFU-E colony number from 94±30.6 to 10.1±2.4 (FIG. 3A) and an increase in hemoglobin F from 1.4±0.05% to […] (FIG. 3B) was observed. This pattern was similar to that obtained for Hb SS progenitors. Of note is the lower average BFU-E colony number for hemoglobin A progenitors as compared with hemoglobin S. This probably reflects the absence of hemolysis and increased RBC production in normals as compared to sickle cell patients. This represents a 9.3-fold decrease and a 4.3-fold increase in BFU-E and hemoglobin F, respectively.

The subject of test [3] is fetal hemoglobin production in normal erythroid progenitors. In words: Hemoglobin F determination in erythroid progenitors, normal donors. It is filed as cell-based, human. As to the method:
as §1
Hemoglobin F determination. The erythroid progenitors were collected, washed in PBS then lysed at room temperature in 200 μl of water. The supernatant was split into two tubes, one for total hemoglobin determination and one for hemoglobin F determination. In brief, IgG (10 μl), 1.2 N NaOH (7 μl) and saturated (NH4)2SO4 (70 μl) were added to the hemoglobin F sample. The denatured hemoglobin was pelleted and the supernatant containing hemoglobin F was mixed with 500 μl of tetramethyl benzidine and 500 μl of H2O2 at room temperature then quantitated on a spectrophotometer at 600 nm. The percentage of fetal hemoglobin to total hemoglobin was determined.
The cytotoxic effect of HU as been proposed as a basic mechanism involved in hemoglobin F induction. […] Utilizing the same protocol, BFU-E colonies from normal donors wee analyzed in the presence of ZL at 0 to 100 μM concentrations. […]

The test system of test [4] is primary erythroid progenitors (BFU-E colonies) from Hb SS patients. To be noted: HU 100 μM, Hb SS patients of the HU cohort (Yang et al.); cited from earlier work.
Test [5] has as its system fetal hemoglobin production in primary erythroid progenitors from Hb SS patients. To be noted: HU 100 μM, Hb SS patients of the HU cohort (Yang et al.); cited from earlier work.

Take `CC(c1cc2ccccc2s1)N(O)C(N)=O` (racemic) [ZL, (±)-1-(1-Benzo[b]thien-2-ylethyl)-1-hydroxyurea]: in test [1] (ZL 2.5 μM pretreated A-PMN vs SRBC+A-PMN control (ethanol diluent), 30 min perfusion), the “decrease in SRBC retention/adherence” value is given as roughly 42%. The “fold decrease in BFU-E” value in test [2] (ZL 0 vs 100 μM) came to 9.3 fold. The BFU-E colony number in test [2] (ZL 100 μM) came out at 10.1±2.4. The “fold increase in hemoglobin F” value in test [3] (ZL 0 vs 100 μM) was found to be 4.3 fold. Moreover, the “hemoglobin F” value in test [3] (ZL 100 μM) is given as 6.0%.
For the compound `NC(=O)NO` [HU, Hydroxyurea], the SRBC retention/adherence in test [1] (HU 50 μM pretreated A-PMN) is listed as 4.2±0.4 ×10^8 SRBC/gram of lung; in test [1] (HU 100 μM pretreated A-PMN), 4.3±0.4 ×10^8 SRBC/gram of lung; in test [1] (HU 1000 μM pretreated A-PMN), 3.9±0.2 ×10^8 SRBC/gram of lung. In addition, the “decrease in retained SRBCs” value in test [1] (HU 1000 μM pretreated PMNs vs control (H2O diluent)) was roughly 25%. Moreover, the “attenuation of activated-PMN mediated enhanced SRBC retention/adherence” value in test [1] (HU 50 and 100 μM) is on record as “did not attenuate”. In test [4], the BFU-E was 7.2. Further, the HbF in test [5] was 19.4%.
